Measured values as given in patent US20020110808A1, “Toxicant-induced differential gene expression” (priority 2000, published 2002).

How the values were obtained:
[1] = test system: HepG2 cells; test: Dot blot array expression assay; details: 24 hr, two-fold threshold
Procedure: The quality of the PCR reactions was assessed by agarose gel electrophoresis. Human genomic DNA (Clontech) and PCR products were robotically dotted in 100 nl aliquots onto positively-charged nylon membranes using the BioDot instrument (Cartesian Technologies, Inc.). After uv-crosslinking, the membranes were rinsed in 2× SSC and allowed to air-dry. Prior to addition of labeled cDNA probes, membranes were washed in boiling 1% SDS, rinsed with 6× SSC, and incubated in 5 mL of 42° C. Microhyb solution (Research Genetics) for 2 hr. Ten minutes prior to addition of the probes, the Microhyb solution was replaced with an equal amount of fresh 42° C. Microhyb solution containing denatured human Cot-1 DNA (Gibco BRL) and poly(dA) primer (Research Genetics) (both at final concentrations of 1 ng/μl).
For each reverse transcription reaction, 2 μg of mRNA was incubated with oligo(dT) primer (200 ng/μl) at 70° C. for 10 minutes. Tubes were chilled and spun briefly. The following reagents (with the final concentrations in parentheses) were added: first strand buffer (1×), DTT (10 mM), dNTP mix (1 mM each of dATP, dGTP, dTTP), [α-^33P]dCTP (3.3 μCi/μl) and Superscript II Reverse Transcriptase (10 units/μL). The samples were kept at 37° C. for 1.5 hr. Unincorporated nucleotides were removed by spinning the reaction mixture through a G-50 column. […] Probe quality was assessed by electrophoresis on a 10% denaturing polyacrylamide minigel. Denatured probes were added directly to the Microhyb solution and hybridized overnight at 42° C. Membranes were washed twice under each of the following conditions: (1) 2× SSC/0.1% SDS at room temperature, 5 min; (2) 0.2× SSC/0.1% SDS at room temperature, 5 min; (3) 0.2× SSC/0.1% SDS at 42° C., 15 min, (4) 0.1× SSC/0.1% SDS at 68° C., 15 min. Membranes were then rinsed briefly in 2× SSC at room temperature, covered with Saran wrap, and exposed to storage phoshpor screens. After three days, screens were scanned using a Storm phosphorimager (Molecular Dynamics). Images were analyzed using ImageQuant software (Molecular Dynamics).
We employed a rapid dot blot assay as a secondary screen for gene expression changes. We tested each of the unique clones against each of the three treatments. […] For these clones, the dot blot assay functioned not as a confirmation assay but as an initial screen for differential expression. Dot blots were prepared by robotically arraying subclone-derived PCR products in quadruplicate onto positively charged nylon membranes. […] In general, each dot consisted of over 80 ng of PCR product, as estimated by inspection of the PCR reactions run on agarose gels. This high quantity of DNA ensured that saturation of spots, with consequent loss of quantitation, would not occur. Spots of genomic DNA were included on each filter to allow normalization between control and treated sample intensities.

[2] = test system: HepG2 cells; test: cDNA array (GF200) expression profiling; type: cell-based, human; details: 20 mM acetaminophen, 16 mM caffeine, 100 mM thioacetamide
Procedure: Cells were grown in DMEM/F12 medium with 10% fetal bovine serum in tissue culture flasks for 3 days following splitting, at which time they were at or near confluency. […] For each treated sample, an untreated control flask was set up with the same medium. Following the treatment period, mRNA was isolated by affinity purification on oligo(dT) cellulose resin using the Poly(A) Pure mRNA isolation kit from Ambion. RNA quality was assessed by agarose gel electrophoresis, and yields were determined by absorbance at 260 nm.
Radiolabeled cDNA for array hybridizations were prepared as follows. To a solution of 2 μg of RNA in 8 μl DEPC-treated water was added 2 μl of 1 μg/μl oligo(dT) (10-20 mer mixture, Research Genetics). After incubation for 10 min at 70° C., the solution was chilled on ice for 2 min, and then added to 6 μl of 5× first strand buffer (250 mM Tris-HCl (pH 8.3), 375 mM KCl, 15 mM MgCl2; Gibco-BRL), 1 μl of 0.1M DTT, 1.5 μl dNTP mix (20 mM each dATP, dGTP and dTTP), 10 μl of 10 mCi/ml [α-^33P]dCTP (1000 Ci/mmol, Amersham), and 1.5 μl of 200 U/μl reverse transcriptase (Superscript II, Gibco-BRL). Following a 90 min incubation at 37° C., cDNA targets were purified by passage through G-50 Sephadex spin columns (Pharmacia) or Bio-Spin 6 columns (BioRad).
GF200 cDNA arrays (Research Genetics) were washed in 0.5% boiling SDS for 5 min and prehybridized for 3 hrs at 42° C. in 5 ml MicroHyb solution (Research Genetics) containing 5 μl of 1 μg/ml poly(dA) (Research Genetics) and 5 μl of 1 μg/ml human Cot-I DNA (Gibco-BRL) that was denatured for 3 min at 100° C. prior to use. Labeled target nucleic acids, boiled for 3 min, were added directly, and hybridization was allowed to proceed for 16-18 hr at 42° C. in roller bottles in hybridization ovens. Arrays were washed twice in 2× SSC, 1% SDS at room temperature for 2 min, and then twice in 0.5× SSC, 1% SDS at 65° C. for 20 min. Arrays were exposed to storage phosphor screens for 3 days and scanned using a phosphorimager (Molecular Dynamics). Arrays were stripped for reuse by placing in boiling 0.5% SDS and then incubating for 1.5 hr with shaking at room temperature, allowing to solution to cool. After stripping, arrays were exposed to storage phosphor screens overnight to confirm loss of signal.
Spot intensities were determined using Pathways software (Research Genetics). Data from quadruplicate sets of hybridizations were normalized by local regression using NLR software (Tom Kepler, North Carolina State University). Cluster analysis was carried out using the Clustan Graphics software package from Clustan Limited (Edinburgh).

[3] = test system: HepG2 cells; test: BrdU incorporation cell proliferation assay; type: cell-based; details: Homo sapiens
Procedure: HepG2 cells (see e.g., Aden et al., Nature 282:615-616 (1979)) (ATCC HB-8065) were maintained in DMEM/F-12 medium with 10% fetal bovine serum and 1% antibiotic/antimycotic. For routine culturing and mRNA preps, cells were grown in 75 cm^2 flasks and split every 4-5 days. For plate assays, cells were plated in 96-well microtiter plates at 1×10^5 cells per well in 100 μl of growth medium.
Depending on the desired exposure time, cell treatments began 3 or 4 days after splitting or plating. At this time, the cells were near or at confluency. […] Cell treatments were at 37° C.
Uptake of 5-bromo-2′-deoxyuridine (BrdU) was measured using the Cell Proliferation ELISA kit from Boehringer-Mannheim (Indianapolis, Ind.).
Cell proliferation assays based on measurement of BrdU incorporation were performed according to the manufacturer's instructions (Boehringer Mannheim “Cell Proliferation ELISA Kit”).

With `Cn1c(=O)c2c(ncn2C)n(C)c1=O` [caffeine] the “Number of 27 unconfirmed or non-matching clones showing an expression change” value [1] was 7, the “Number of genes with statistically significant (p<0.05) change in expression in three or more adjacent time points” value ([2]; 1 to 24 hr time course) was 158 and the “Global differential gene expression (rms) over time” value ([2]; 1 to 24 hr) was “few changes until 6 hr, after which overall differential expression is fairly constant”. It also gave an inhibition at 16000 µM ([3]; HepG2, 24 h, read-out: Inhibition of BrdU uptake (cell proliferation)) of 67 to 80% and an IC50 ([3]; HepG2, read-out: IC50, BrdU incorporation in HepG2 cells) of about 6 mM.
